Data taken from patent publication US10206394B2, “Herbicidal compounds” (Syngenta Participations AG, priority 2014, dated 2019).
Read-outs that look alike come from different tables or passages of the source.

Tests used:
Test in all cases: Glasshouse assay for herbicidal activity (pre- and post-emergence), percentage phytotoxicity
Assay type in all cases: in vivo
[1] = test system: Lolium perenne (LOLPE); conditions: Lolium perenne, 250 g/ha, visual assessment (100%=total damage, 0%=no damage)
Outline: (§1)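 Pot-grown, standard soil. PRE: spray 1 d post-sowing; POST: ~12 d. Glasshouse 24/18 °C (warm spp.) / 20/16 °C (cool spp.), 16 h light, 65% RH, watered 2×/day. Visual % damage, 20 DAA PRE, 15 DAA POST.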

[2] = test system: Avena fatua (AVEFA); conditions: Avena fatua, 250 g/ha, visual assessment (100%=total damage, 0%=no damage)
Outline: as §1

[3] = test system: Alopecurus myosuroides (ALOMY); conditions: Alopecurus myosuroides, 250 g/ha, visual assessment (100%=total damage, 0%=no damage)
Outline: as §1

[4] = test system: Echinochloa crus-galli (ECHCG); conditions: Echinochloa crus-galli, 250 g/ha, visual assessment (100%=total damage, 0%=no damage)
Outline: as §1

[5] = post-emergence, 360 h, post-emergence, 15 DAA, read-out: Post-emergence herbicidal activity (percentage phytotoxicity) LOLPE POST
[6] = pre-emergence, 480 h, pre-emergence, 20 DAA, read-out: Pre-emergence herbicidal activity (percentage phytotoxicity) LOLPE PRE
[7] = post-emergence, 360 h, post-emergence, 15 DAA, read-out: Post-emergence herbicidal activity (percentage phytotoxicity) AVEFA POST
[8] = pre-emergence, 480 h, pre-emergence, 20 DAA, read-out: Pre-emergence herbicidal activity (percentage phytotoxicity) AVEFA PRE
[9] = post-emergence, 360 h, post-emergence, 15 DAA, read-out: Post-emergence herbicidal activity (percentage phytotoxicity) ALOMY POST
[10] = pre-emergence, 480 h, pre-emergence, 20 DAA, read-out: Pre-emergence herbicidal activity (percentage phytotoxicity) ALOMY PRE
[11] = post-emergence, 360 h, post-emergence, 15 DAA, read-out: Post-emergence herbicidal activity (percentage phytotoxicity) ECHCG POST
[12] = pre-emergence, 480 h, pre-emergence, 20 DAA, read-out: Pre-emergence herbicidal activity (percentage phytotoxicity) ECHCG PRE

SMILES	pest or weed control at 250 g/ha [1, 5] [%]	pest or weed control at 250 g/ha [1, 6] [%]	pest or weed control at 250 g/ha [2, 7] [%]	pest or weed control at 250 g/ha [2, 8] [%]	pest or weed control at 250 g/ha [3, 9] [%]	pest or weed control at 250 g/ha [3, 10] [%]	pest or weed control at 250 g/ha [4, 11] [%]	pest or weed control at 250 g/ha [4, 12] [%]
Cc1cc(-c2ncc(Cl)s2)cc(C)c1C1C(=O)CC(CC(=O)NC(C)(C)C)C1=O (stereo not shown) [Compound B24]	90	100	80	80	90	80	100	100
Cc1cc(C)c(C2CC(=O)C(CC(=O)NC(C)CC(C)C)C2=O)c(C)c1 (stereo not shown) [Compound B25]	80	90	80	70	80	90	90	90
Cc1cc(C)c(C2C(=O)CC(CC(=O)NC(C)C(C)(C)C)C2=O)c(C)c1 (stereo not shown) [Compound B26]	60	70	60	20	70	60	60	70
C=CCC(C)(C)NC(=O)CC1CC(=O)C(c2c(C)cc(C)cc2C)C1=O (stereo not shown) [Compound B27]	70	60	70	20	70	30	40	60
Cc1cc(C)c(C2C(=O)CC(CC(=O)NC(C)CC3CCCC3)C2=O)c(C)c1 (stereo not shown) [Compound B28]	50	80	60	50	50	50	70	60
Cc1cc(C)c(C2C(=O)CC(CC(=O)NC(C)(C)c3ccccc3)C2=O)c(C)c1 (stereo not shown) [Compound B29]	70	80	60	10	70	30	70	80
Cc1cc(-c2nc(C#N)cs2)cc(C)c1C1C(=O)CC(CC(=O)NC(C)(C)C)C1=O (stereo not shown) [Compound B30]	30	70	90	70	70	60	80	70
Cc1cc(C)c(C2C(=O)CC(CC(=O)NC(C)C3CC3)C2=O)c(C)c1 (stereo not shown) [Compound B31]	80	90	80	70	80	100	80	90
Cc1cc(C)c(C2C(=O)CC(CC(=O)NC3(C)CCC3)C2=O)c(C)c1 (stereo not shown) [Compound B32]	50	90	40	0	70	90	80	80
Cc1cc(-c2ncc(F)cc2F)cc(C)c1C1C(=O)CC(CC(=O)NCc2cccc(Cl)c2)C1=O (stereo not shown) [Compound B33]	90	100	100	100	90	100	100	100
C#Cc1ccc(CNC(=O)CC2CC(=O)C(c3c(C)cc(C)cc3C)C2=O)cc1 (stereo not shown) [Compound B34]	80	90	90	80	60	70	100	100
